From US12600742B2, “Markers, conjugates, compositions and methods for hypoxia imaging, mapping, and therapy” (WWIKY BIOSCIENCES INC., priority 2017, dated 2026)

How the values were obtained:
FaDu cells [1] = assay: Hypoxic cytotoxicity of ACN, colony formation assay; assay type: cell-based, human; conditions: concentrations up to 100 μM, 24 h, normoxia (20% O2) or hypoxia (1% O2 and <0.1% O2)
Description: (§1) Human head and neck squamous cell carcinoma cell line, FaDu, was purchased from American Type Culture Collection (ATCC HTB-43). FaDu cells were cultured in Dulbecco's Modified Eagle's medium/Nutrient Mixture F-12 media supplemented with 10% Fetal bovine serum, 2 mM L-glutamine and 10% Penicillin Streptomycin. Cells were cultured in a humidified incubator at 37° C. with 5% CO2.
(§2) Hypoxic cytotoxicity of ACN was evaluated using colony formation assay. FaDu cells were seeded on 60 mm glass petri dishes (in triplicates) at a density of 300 cells per plate. Cells were allowed to attach for 24 hours, followed by treatment with 1 μM, 10 μM and 100 μM of freshly dissolved ACN for 24 hours under normoxia (20% O2) or hypoxia (1% O2 and <0.1% O2); 100 μM DMSO was used as vehicle control. Cells were allowed to grow and form colonies for 14 days. Colonies were stained with crystal violet, counted and plotted as percentage of vehicle conditions; error bars show standard error of the means. […] Colonies were stained with crystal violet, counted and plotted as percentage of vehicle (DMSO) controls; error bars represent standard error of the means. […] 1 hr following IR, cells were trypsinized, counted, and seeded on 24 well plates in triplicates at a density of 50,000 cells per well. Cells were trypsinized 1, 3, 5 and 7 days after re-plating, and counted with a Z2 coulter particle counter.

FaDu cells [2] = assay: Radiosensitization potential of ACN, colony formation assay with 5 Gy IR; assay type: cell-based, human; conditions: 100 μM ACN and 5 Gy IR, normoxia or hypoxia (<0.1% O2)
Description: as §1, §2

FaDu cells [3] = assay: Cell proliferation assay (cell counts); assay type: cell-based, human; conditions: 100 μM, alone or in combination with 5 Gy IR
Description: as §1, §2

FaDu cells [4] = assay: In vitro inverse oxygen dependent entrapment of ACN, click chemistry fluorescence; assay type: cell-based, human
Description: The Click-IT reaction cocktail (Molecular Probes) was made up according to the manufacturer's directions using a 1:5000 dilution of the 2 mg/ml Alexafluor 555 or 594 conjugated alkyne stock (Molecular Probes). The reaction cocktail was used within 15 minutes of preparation. All reactions were done at room temperature in the dark.
Subconfluent FaDu cells were trypsinized, and approximately 3-5×10^5 cells were seeded in 35 mm tissue culture plates containing sterilized […] glass coverslips. Cells were allowed to grow overnight, and treated with different concentrations of ACN (1 μM, 10 μM and 100 μM) under normoxia (20% Oxygen), hypoxia (1% Oxygen) or anoxia (0% Oxygen) for 6 hours. Hypoxia and anoxia were achieved using an in house de-gassing system. Post-treatment, all steps were carried out at room temperature. Cells were washed three to five times with 1×PBS, fixed in 2% paraformaldehyde (PFA) for 20 minutes, and washed again three times with 1×PBS. The fixed cells were then blocked and permeabilized with 1% BSA in 1×PBS containing 0.1% Triton-100 for 20 minutes, followed by incubation with click cocktail containing Alexafluor 594 conjugated alkyne for 30 minutes. Subsequently cells were washed and stained with Hoechst 33342 (1:10000 dilution in PBS, Life Technologies) for 5 minutes before mounting them on glass slides (Fluoroshield Mounting Medium, abcam). The prepared slides were kept at 4° C. until imaged. Images were obtained by with a Plan-Apochromat 40X/1.3 Oil DIC lens on a Zeiss 710 confocal microscope using Zen 2011 software.

FaDu cells [5] = assay: Comparison of hypoxia selective uptake of ACN and Pimonidazole in vitro; assay type: cell-based, human
Description: FaDu cells were grown on coverslips (as described above) and treated simultaneously with 100 μM ACN and 100 μM Pimonidazole. The cells were subsequently exposed to normoxic (20% Oxygen), hypoxic (1% Oxygen) or anoxic (0% Oxygen) conditions for 6 hours, and fixed in 2% PFA. Standard Pimonidazole IHC was performed as described elsewhere using an Alexafluor 647 labelled secondary antibody. Click chemistry was performed as previously described using an Alexafluor 555 conjugated alkyne followed by nuclear staining with Hoechst. Mounted coverslips on glass slides were imaged as described earlier.

FaDu cells [6] = assay: Retention profile of ACN in hypoxic cells following re-oxygenation; assay type: cell-based, human; conditions: 100 μM
Description: After bioreductive activation under hypoxia, nitroimidazole reactive species (nitroradical anion) bind to cellular nucleophiles to form drug-protein adducts. To evaluate how fast these adducts are metabolized, we treated FaDu cells with 100 μM of ACN under normoxia or anoxia for 6 hours, and exposed them to subsequent re-oxygenation. Cells were fixed after 0 hr, 1 hr, 3 hr, 6 hr and 18 hr of re-oxygenation. Click chemistry was performed on fixed cells as previously described.

FaDu xenograft tumors = assay: Assessment of ACN as a hypoxia tracer in tumor-bearing mice; assay type: in vivo, BALB/c nude mice; conditions: 80 mg/Kg intraperitoneally, 2 hours post-injection
Description: Female BALB/c nude mice (Charles River Laboratories) aged 6 weeks were used and cared for according to the CCAC guidelines. We used a biflanked sub-cutaneous tumor model where the tumor in the left flank was untreated (control) and the tumor in the right flank served as the ‘treatment’ group. We subcutaneously injected 6×10^6 FaDu cells in 0.1 ml of sterile 0.9% NaCl into the upper right flank to form palpable tumors. The tumors were measured daily until the volume reached 10 mm3. The mice were divided into 4 groups and injected intraperitoneally in 0.15 ml 0.9% saline with: 1-80 mg/Kg ACN, 2-80 mg/Kg pimonidazole (Hypoxyprobe), 3-80 mg/Kg ACN:pimonidazole in a 1:1 ratio and 4-0.9% saline control. Mice were sacrificed 2 hours post-injection, tumors removed and frozen in OCT. Seven micron serial sections were taken of each tumor, dried and stored at −80° C.
Tissue sections were air dried for 25 minutes, fixed for 5 minutes in −20° C. acetone; air dried 25 minutes and blocked in PBS with 1% BSA for 20 minutes. Sections were incubated with primary antibodies for small vessel endothelium [1:100 rabbit anti-CD34 (abcam)] or hypoxia [1:100 rabbit anti-pimonidazole Hypoxyprobe)] for 2 hours at room temperature, followed by 3 five minute washes in 1×PBS. […]

Structure (SMILES): [N-]=[N+]=NCC1OC(n2ccnc2[N+](=O)[O-])[C@H](O)[C@H]1O (some centres unmarked) [ACN, 5’-azido-arabinofuranosyl-2-nitroimidazole]
- hypoxia-selective cytotoxicity (colony formation) (FaDu cells [1]): did not show any hypoxia-selective cytotoxicity
- hypoxic radiosensitization (colony formation) (FaDu cells [2]): No hypoxic radiosensitization was observed
- cell counts compared to vehicle control (FaDu cells [3]): did not generate significant difference in cell counts
- entrapment in cells versus oxygen level (click signal) (FaDu cells [4]; 1, 10, 100 μM, 6 h, normoxia, hypoxia, <0.1% O2): entrapped in FaDu cells in an inverse oxygen dependent manner
- dose dependence of entrapment in hypoxic cells (FaDu cells [4]; 1-100 μM, hypoxic cells): dose dependent manner
- entrapment in well oxygenated or normoxic cells (FaDu cells [4]; normoxia (20% Oxygen)): minimal to almost no entrapment
- staining detected by oxygen condition (FaDu cells [5]; 100 μM of each compound, 6 h): detected in oxygen deprived cells
- sub-cellular distribution of signal (FaDu cells [5]; hypoxic <0.1% O2 cells, 100 μM): higher nuclear signal
- time after re-oxygenation up to which signal for ACN-protein adducts could be detected (FaDu cells [6]; 6 h anoxia then re-oxygenation): up to 6 hours
- signal after 18 hours re-oxygenation (FaDu cells [6]; 18 hours re-oxygenation): very faint signal
- localization in tumor sections (FaDu xenograft tumors): co-localizes in hypoxic regions of FaDu xenograft tumors
